Source: patent US20250302862A1, “SMALL RNA DRUG FOR INHIBITING ACTIVITY OF CANCER CELLS” (Institute of Basic Medical Sciences Chinese Academy of …, priority 2022, published 2025)

How the values were obtained:
A549 cells = assay: Concentration-dependent proliferation inhibition, MTS; format: cell-based, human; conditions: concentration gradient, MTS 48 h after transfection
Method: (§1) 1) H460 and A549 cells with a cell density of more than 90% in 10 cm^2 dishes were plated in 96-well plates according to the cell growth rate, and transfected after 12 h, and the groups (3 wells per group) were divided as follows: • BLANK group: 20 uL of opti-MEM • negative control group (NC group) and experimental group: • A. 10 uL of opti-MEM and 0.2 uL of iMax were mixed well for 5 min • B. 10 uL of opti-MEM and small RNA were mixed well (the concentration gradient of H460 cell experimental group was set as: 0.01 noml/L, 0.03 noml/L, 0.1 noml/L, 0.39 noml/L, 0.78 noml/L, 1.56 noml/L, 3.125 noml/L, 6.25 noml/L, 12.5 noml/L, 25 noml/L, 50 noml/L, 100 noml/L; the concentration gradient of A549 cell experimental group was set as: 0.01 noml/L, 0.03 noml/L, 0.1 noml/L, 0.3 noml/L, 1 noml/L, 3 noml/L, 10 noml/L, 30 noml/L, 100 noml/L, 300 noml/L; the final concentration of sRNA in NC group was 100 noml/L) • C. solution A and solution B were mixed well and let stand for 15 min, and then was added at a 20 ul/well system • Note: 100 uL of nuclease-free water was added to 2 nmol of small RNA dry powder for dissolution at a storage concentration of 20 umol/L
(§2) 2) Detection of cell viability: MTS detection was performed after 48 h.
(§3) Formulation of MTS detection solution was as follows: opti-MEM:MTS A solution:MTS B solution=100:20:1. After removing the supernatant, 100 uL of MTS detection solution was added to each well and incubated for 0.5-2 h. Absorbance values at wavelengths of 490 nm and 630 nm were measured in a microplate reader.
(§4) 1) H460 and A549 cells with a cell density of more than 90% in 10 cm^2 dishes were plated in 96-well plates according to the cell growth rate, and transfected after 12 h, and the groups (3 wells per group) were divided as follows: • blank control group: 20 uL of opti-MEM • negative control group (NC group) and experimental group: • A. 10 uL of opti-MEM and 2 uL of iMax were mixed well for 5 min • B. 10 uL of opti-MEM and small RNA were mixed well (the concentration gradient of H460 cell experimental group was set as: 0.01 noml/L, 0.03 nmol/L, 0.1 noml/L, 0.3 noml/L, 1 noml/L, 3 noml/L, 10 noml/L, 30 noml/L, 100 noml/L, 300 noml/L, 400 noml/L, 500 noml/L; the concentration gradient of A549 cell experimental group was set as: 0.01 noml/L, 0.03 nmol/L, 0.1 noml/L, 0.3 noml/L, 1 noml/L, 3 noml/L, 10 noml/L, 30 noml/L, 100 noml/L, 300 noml/L; the final concentration of sRNA in NC group was 100 noml/L) • C. solution A and solution B were mixed well and let stand for 15 min, and then was added to each well at a 20 uL system • positive group: the concentration of paclitaxel was adjusted to 100 nmol/L • Note: 100 uL of nuclease-free water was added to 2 nmol of small RNA dry powder for dissolution at a storage concentration of 20 umol/L
(§5) 1) H460 and A549 cells with a cell density of more than 90% in 10 cm^2 dishes were plated in 96-well plates according to the cell growth rate, and transfected after 12 h, and the groups (3 wells per group) were divided as follows: • blank control group: 20 uL of opti-MEM • negative control group (NC group) and experimental group: • A. 10 uL of opti-MEM and 0.2 uL of iMax were mixed well for 5 min • B. 10 uL of opti-MEM and small RNA were mixed well (the concentration gradient of H460 cell experimental group was set as: 0.1 noml/L, 0.3 noml/L, 1 noml/L, 3 noml/L, 10 noml/L, 30 noml/L, 100 noml/L, 300 noml/L; the concentration gradient of A549 cell experimental group was set as: 0.01 noml/L, 0.03 nmol/L, 0.1 noml/L, 0.3 noml/L, 1 noml/L, 3 noml/L, 10 noml/L, 30 noml/L, 100 noml/L, 300 noml/L; the final concentration of sRNA in NC group was 100 noml/L) • C. solution A and solution B were mixed well and let stand for 15 min, and then a 20 uL system was added at a 20 uL system • Note: 100 uL of nuclease-free water was added to 2 nmol of small RNA dry powder for dissolution at a storage concentration of 20 umol/L

H460 cells = assay: as above; format: cell-based, human; conditions: concentration gradient, MTS 48 h after transfection
Method: as §1, §2, §3, §4, §5

[1] = tested on: primary lung cancer Kras^LSL-G12Dp53^fl/fl (KP) mouse model; assay: Survival of mice with primary lung cancer; format: in vivo; conditions: 10 nmol sRNA in sphingosine(d18:1) delivery system daily by gavage until death, vs NC group
Description: The mouse model of primary lung cancer was Kras^LSL-G12Dp53^fl/fl (KP).
Mice were weighed and assigned to the negative control group (NC group) and HQi-sRNA-2 group randomly. The NC group was the negative control, in which a sphingosine(d18:1)-NC-sRNA herbal medicine delivery system was constructed from NC-sRNA. The HQi-sRNA-2 group was the experimental group, in which a sphingosine(d18:1)-HQi-sRNA-2 herbal medicine delivery system was constructed from HQi-sRNA-2 and sphingosine(d18:1).
The herbal medicine delivery system was constructed by heating and mixing 10 nmol of sRNA, 100 ug of sphingosine(d18:1) and 300 ul of sterile enzyme-free water in a water bath at 90° C. for 15 minutes.
Each mouse with a uniform body weight was dosed by gavage. Each mouse was given 10 nmol of HQi-sRNA-2 mimic daily by gavage until death of the mouse.
The survival time of each mouse was recorded, the survival curve was plotted, and statistical analysis was performed.
Mice were weighed and assigned to the negative control group (NC group), MDM-sRNA-39 group and MDM-sRNA-163 group randomly. The NC group was the negative control, in which a sphingosine(d18:1)-NC-sRNA herbal medicine delivery system was constructed from NC-sRNA. The MDM-sRNA-39 group was an experimental group, in which a sphingosine(d18:1)-MDM-sRNA-39 herbal medicine delivery system was constructed from MDM-sRNA-39. The MDM-sRNA-163 group was an experimental group, in which a sphingosine(d18:1)-MDM-sRNA-163 herbal medicine delivery system was constructed from MDM-sRNA-163.

In the case of “MDM-sRNA-163: small RNA derived from Maytenus hookeri, sequence UGACUCUAGUCCGACUUUGUGAAAUGACU (listed as RNA, chemistry not given here)”, the “proliferation-inhibiting function (cell activity, MTS)” value (“proliferation-inhibiting function” below) (A549 cells) is reported as “concentration-dependent”, the “proliferation-inhibiting function” value (H460 cells) is reported as “concentration-dependent” and the “survival of mice with primary lung cancer” value (“survival of mice” for short) [1] is reported as “significantly prolonged”.
In the case of “HQi-sRNA-2: small RNA derived from Scutellaria baicalensis, sequence AUGGUUCGAUUCCGGAGAGGG (listed as RNA, chemistry not given here)”, the “proliferation-inhibiting function” value (A549 cells) is reported as “concentration-dependent”, the “proliferation-inhibiting function” value (H460 cells) is reported as “concentration-dependent” and the “survival of mice” value [1] is reported as “significantly prolonged”.
With “MDM-sRNA-39: small RNA derived from Maytenus hookeri, sequence GGGAUUGUAGUUCAAUUGGUCAGAGCACC (listed as RNA, chemistry not given here)” the “proliferation-inhibiting function” value (A549 cells) was “concentration-dependent”, the “proliferation-inhibiting function” value (H460 cells) was “concentration-dependent” and the “survival of mice” value [1] was “significantly prolonged”.
